Calls of active or inactive are those of the source. No cut-off for these calls is given here.
Tests used:
Ca-Ski [1] = test: Induction of autophagy in human Ca Ski cells transfected with mRFP-GFP-LC3 plasmid assessed as appearance of RFP puncta clusters as aggregates in cytoplasm at 25 uM incubated for 24 hrs by DAPI staining based fluorescence confocal microscopic analysis; type: functional, cell-based
HeLa [2] = test: Induction of autophagy in human HeLa cells transfected with mRFP-GFP-LC3 plasmid assessed as appearance of RFP puncta clusters as aggregates in cytoplasm at 0.4 to 0.8 uM incubated for 24 hrs by DAPI staining based fluorescence confocal microscopic analysis; type: functional, cell-based; settings: dose 0.4-0.8 µM
HeLa [3] = test: Effect on cleaved PARP expression level in p53 deficient human HeLa cells at 0.6 to 1.2 uM incubated for 24 hrs by Western blot analysis; type: functional, cell-based; settings: dose 0.6-1.2 µM
HeLa [4] = test: Effect on caspase 3 expression level in p53 deficient human HeLa cells at 0.6 to 1.2 uM incubated for 24 hrs by Western blot analysis; type: functional, cell-based; settings: dose 0.6-1.2 µM
Ca-Ski [5] = test: Effect on TRFC protein expression level in human Ca Ski cells at 0.5 uM incubated for 24 hrs by Western blot analysis; type: functional, cell-based
Ca-Ski [6] = test: Effect on PARP expression level in p53 deficient human Ca Ski cells at 0.5 to 1 uM incubated for 24 hrs by Western blot analysis; type: functional, cell-based; settings: dose 0.5-1 µM
HeLa [7] = test: Induction of autophagy in ATG5 deficient human HeLa cells assessed as increase in LC3-II expression at 0.6 to 1.2 uM incubated for 24 hrs by Western blot analysis; type: functional, cell-based; settings: dose 0.6-1.2 µM
HeLa [8] = test: Induction of apoptosis in human HeLa cells assessed as necrotic cells at 0.6 uM preincubated with Z-VAD-FMK for 1 hrs followed by compound addition and measured after 24 hrs by Annexin V-FITC/PI staining based flow cytometric analysis (reference value: 2.16 %); type: functional
HeLa [9] = test: Induction of autophagy in human HeLa cells transfected with mRFP-GFP-LC3 plasmid assessed as appearance of RFP puncta clusters as aggregates in cytoplasm at 30 uM incubated for 24 hrs by DAPI staining based fluorescence confocal microscopic analysis; type: functional, cell-based
HeLa [10] = test: Upregulation of autophagy pathway related gene expression in human HeLa cells at 1.2 uM incubated for 24 hrs by GSVA enrichment analysis; type: functional, cell-based
HeLa [11] = test: Induction of autophagy in human HeLa cells assessed as increase in LC3-I conversion to LC3-II at 0.3 to 1.2 microM incubated for 24 hrs by Western blot analysis; type: functional, cell-based; settings: dose 0.3-1.2 µM
HeLa [12] = test: Induction of autophagy in human HeLa cells assessed as increase in p62 level at 0.3 to 1.2 microM incubated for 24 hrs by Western blot analysis; type: functional, cell-based; settings: dose 0.3-1.2 µM
SiHa [13] = test: Antiproliferative activity against human SiHa cells assessed as inhibition of cell viability incubated for 24 hrs by CCK8 assay; type: functional, cell-based
Ca-Ski [14] = test: Induction of apoptosis in human Ca Ski cells assessed as early apoptotic cells at 1 uM incubated for 24 hrs by Annexin V-FITC/PI staining based flow cytometric analysis (reference value: 4.76 %); type: functional
Ca-Ski [15] = test: Induction of autophagy in human Ca Ski cells transfected with mRFP-GFP-LC3 plasmid assessed as decrease in GFP fluorescence at 25 uM incubated for 24 hrs by DAPI staining based fluorescence confocal microscopic analysis; type: functional, cell-based
Ca-Ski [16] = test: Effect on SLC7A11 protein expression level in human Ca Ski cells at 0.5 uM incubated for 24 hrs by Western blot analysis; type: functional, cell-based
Ca-Ski [17] = test: Induction of morphological changes in human Ca Ski cells assessed as decrease in cell adherence to culture dish at 0.5 to 2 uM by microphotographic analysis; type: functional, cell-based; settings: dose 0.5-2 µM
[18] = Toxicity in female BALB/c mouse xenografted with human HeLa cells assessed as effect on body weight at 4 to 8 mg/kg administered every four days and measured after 26 days; type: organism-based; settings: in vivo, 624 h, dose 4-8 mg/kg, time 26 day
Ca-Ski [19] = test: Induction of autophagy in human Ca Ski cells assessed as increase in LC3-II accumulation at 0.5 uM incubated for 3 to 48 hrs by Western blot analysis; type: functional, cell-based; settings: time 3-48 hrs
[20] = Toxicity in female BALB/c mouse xenografted with human HeLa cells assessed as effect on platelet level at 4 to 8 mg/kg administered every four days and measured after 26 days; type: organism-based; settings: in vivo, 624 h, dose 4-8 mg/kg, time 26 day
HeLa [21] = test: Induction of apoptosis in human HeLa cells assessed as late apoptotic cells at 1.2 uM preincubated with Z-VAD-FMK for 1 hrs followed by compound addition and measured after 24 hrs by Annexin V-FITC/PI staining based flow cytometric analysis (reference value: 1.02 %); type: functional
HCT-116 = test: Antiproliferative activity against human HCT-116 cells assessed as reduction in cell optical density incubated for 48 hrs by MTT assay; type: functional, cell-based; settings: HCT-116, 48 h
HeLa [22] = test: Inhibition of cell migration in human HeLa cells at 0.6 to 1.2 uM measured after 48 hrs by cell scratch assay; type: functional, cell-based; settings: dose 0.6-1.2 µM
SiHa [23] = test: Inhibition of colony formation in human SiHa cells assessed as reduction in colony forming unit count at 0.1 to 0.4 uM incubated for 24 hrs by crystal violet staining based analysis; type: functional, cell-based; settings: dose 0.1-0.4 µM
Ca-Ski [24] = test: Induction of autophagy in human Ca Ski cells transfected with mRFP-GFP-LC3 plasmid assessed as stable RFP fluorescence at 0.3 to 0.6 uM incubated for 24 hrs by DAPI staining based fluorescence confocal microscopic analysis; type: functional, cell-based; settings: dose 0.3-0.6 µM
Ca-Ski [25] = test: Induction of apoptosis in human Ca Ski cells assessed as early apoptotic cells at 0.5 uM incubated for 24 hrs by Annexin V-FITC/PI staining based flow cytometric analysis (reference value: 4.76 %); type: functional
Ca-Ski [26] = test: Induction of autophagy in ATG5 deficient human Ca Ski cells assessed as increase in LC3-II expression at 0.5 to 1 uM incubated for 24 hrs by Western blot analysis; type: functional, cell-based; settings: dose 0.5-1 µM
HeLa [27] = test: Induction of apoptosis in human HeLa cells assessed as necrotic cells at 0.6 uM incubated for 24 hrs by Annexin V-FITC/PI staining based flow cytometric analysis (reference value: 1.88 %); type: functional
HeLa [28] = test: Effect on SLC7A11 protein expression level in human HeLa cells at 0.6 uM incubated for 24 hrs by Western blot analysis; type: functional, cell-based
Ca-Ski [29] = test: Induction of apoptosis in human Ca Ski cells assessed as viable cells at 0.5 uM incubated for 24 hrs by Annexin V-FITC/PI staining based flow cytometric analysis (reference value: 86.8 %); type: functional; settings: read-out: Activity
SiHa [30] = test: Antiproliferative activity against human SiHa cells assessed as inhibition of cell growth at 0.4 to 1.6 uM by CCK8 assay; type: functional, cell-based; settings: dose 0.4-1.6 µM, time 6.0 day
HeLa [31] = test: Antiproliferative activity against human HeLa cells assessed as inhibition of cell viability incubated for 24 hrs by CCK8 assay; type: functional, cell-based
HeLa [32] = test: Antiproliferative activity against Bax deficient human HeLa cells assessed as inhibition of cell viability incubated for 24 hrs by CCK8 assay; type: functional, cell-based
Ca-Ski [33] = test: Induction of autophagy in human Ca Ski cells assessed as increase in p62 level at 0.25 to 1 microM incubated for 24 hrs by Western blot analysis; type: functional, cell-based; settings: dose 0.25-1 µM

**Q.** For `COc1cccc(Nc2ccnc3cc(OCCCCCOc4ccc5c(Nc6cccc(OC)c6)ccnc5c4)ccc23)c1`, which Activity (Ca-Ski [1]) is on record?
**A.** Its Activity is “Active”.

**Q.** What about the Activity (HeLa [2]) of the same compound?
**A.** The Activity was “Active”.

**Q.** What about the Activity (HeLa [3]) of the same compound?
**A.** Its Activity is “inactive”.

**Q.** And the Activity (HeLa [4])?
**A.** Its Activity is “inactive”.

**Q.** And the Activity (Ca-Ski [5])?
**A.** Its Activity is “inactive”.

**Q.** What about the Activity (Ca-Ski [6]) of the same compound?
**A.** The Activity was “inactive”.

**Q.** What about the Activity (HeLa [7]) of the same compound?
**A.** The Activity was “inactive”.

**Q.** What about the Activity (HeLa [8]) of the same compound?
**A.** Its Activity is 1.01%.

**Q.** And the Activity (HeLa [9])?
**A.** Its Activity is “Active”.

**Q.** What about the Activity (HeLa [10]) of the same compound?
**A.** The Activity was “Active”.

**Q.** What about the Activity (HeLa [11]) of the same compound?
**A.** The Activity was “Active”.

**Q.** What about the Activity (HeLa [12]) of the same compound?
**A.** Its Activity is “Active”.

**Q.** What about the Activity (SiHa [13]) of the same compound?
**A.** Its Activity is “Dose-dependent-effect”.

**Q.** And the IC50 (SiHa [13])?
**A.** The IC50 was 1450 nM.

**Q.** What about the Activity (Ca-Ski [14]) of the same compound?
**A.** The Activity was 7.2%.

**Q.** What about the Activity (Ca-Ski [15]) of the same compound?
**A.** Its Activity is “Active”.

**Q.** What about the Activity (Ca-Ski [16]) of the same compound?
**A.** The Activity was “Moderate_effect”.

**Q.** And the Activity (Ca-Ski [17])?
**A.** The Activity was “Active”.

**Q.** What about the Activity [18] of the same compound?
**A.** Its Activity is “Non-toxic”.

**Q.** What about the Activity (Ca-Ski [19]) of the same compound?
**A.** The Activity was “Active”.

**Q.** And the Activity [20]?
**A.** The Activity was “Non-toxic”.

**Q.** And the Activity (HeLa [21])?
**A.** The Activity was 3.71%.

**Q.** And the IC50 (HCT-116)?
**A.** Its IC50 is 260 nM.

**Q.** And the inhibition (HeLa [22])?
**A.** The inhibition was “Active”.

**Q.** What about the inhibition (SiHa [23]) of the same compound?
**A.** The inhibition was “Active”.

**Q.** What about the Activity (Ca-Ski [24]) of the same compound?
**A.** The Activity was “Active”.

**Q.** What about the Activity (Ca-Ski [25]) of the same compound?
**A.** Its Activity is 8.01%.

**Q.** What about the Activity (Ca-Ski [26]) of the same compound?
**A.** The Activity was “inactive”.

**Q.** What about the Activity (HeLa [27]) of the same compound?
**A.** Its Activity is 2.66%.

**Q.** What about the Activity (HeLa [28]) of the same compound?
**A.** Its Activity is “Moderate_effect”.

**Q.** What about the viability at 0.5 µM (Ca-Ski [29]) of the same compound?
**A.** The viability at 0.5 µM was 85.5%.

**Q.** And the Activity (SiHa [30])?
**A.** The Activity was “Time-dependent-effect”.

**Q.** What about the Activity (HeLa [31]) of the same compound?
**A.** The Activity was “Dose-dependent-effect”.

**Q.** What about the IC50 (HeLa [31]) of the same compound?
**A.** The IC50 was 648 nM.

**Q.** What about the IC50 (HeLa [32]) of the same compound?
**A.** The IC50 was 1320 nM.

**Q.** What about the Activity (Ca-Ski [33]) of the same compound?
**A.** Its Activity is “Active”.
